Source: patent US10681909B2, “Herbicidal triazoles” (FMC Corporation, priority 2014, dated 2020)

Assays:
Details in all cases: scale 0 to 100
sandbur = assay: Test E postemergence; type: in vivo, Cenchrus echinatus
Text: (§1) Seeds of plant species selected from corn (Zea mays), soybean (Glycine max), lambsquarters (Chenopodium album), poinsettia, wild (wild poinsettia, Euphorbia heterophylla), pigweed, palmer (palmer pigweed, Amaranthus palmeri), waterhemp (common waterhemp, Amaranthus rudis), surinam grass (Brachiaria decumbens), crabgrass, large (large crabgrass, Digitaria sanguinalis), crabgrass, Brazilian (Brazilian crabgrass, Digitaria horizontalis), panicum, fall (fall panicum, Panicum dichotomiflorum), foxtail, giant (giant foxtail, Setaria faberii), foxtail, green (green foxtail, Setaria viridis), goosegrass (Eleusine indica), johnsongrass (Sorghum halepense), ragweed (common ragweed, Ambrosia elatior), barnyardgrass (Echinochloa crus-galli), sandbur (southern sandbur, Cenchrus echinatus), arrowleaf sida (Sida rhombifolia), ryegrass, Italian (Italian ryegrass, Lolium multiflorum), dayflower, VA (Virginia dayflower, Commelina virginica), field bindweed (Convolvulus arvensis), cocklebur (common cocklebur, Xanthium strumarium), morningglory (Ipomoea coccinea), nightshade (eastern black nightshade, Solanum ptycanthum), kochia (Kochia scoparia), nutsedge, yellow (yellow nutsedge, Cyperus esculentus), smartweed (ladysthumb smartweed, Polygonum persicaria), velvetleaf (Abutilon theophrasti), horseweed (Conyza canadensis), and beggarticks (hairy beggarticks, Bidens pilosa), were planted into a silt loam soil and treated preemergence with test chemicals formulated in a non-phytotoxic solvent mixture which included a surfactant.
(§2) At the same time, plants from these crop and weed species and also waterhemp_RES1, (ALS & Triazine resistant common waterhemp, Amaranthus rudis), and waterhemp_RES2, (ALS & HPPD resistant common waterhemp, Amaranthus rudis) were planted in pots containing Sunshine Redi-Earth® planting medium comprising spaghnum peat moss, vermiculite, starter nutrients and dolomitic limestone were treated with postemergence applications of test chemicals formulated in the same manner. Plants ranged in height from 2 to 18 cm for postemergence treatments (1- to 4-leaf stage). Treated plants and controls were maintained in a greenhouse for 14 to 21 d, after which time all species were compared to controls and visually evaluated. Plant response ratings, summarized in Table E, are based on a scale of 0 to 100 where 0 is no effect and 100 is complete control. A dash (-) response means no test result.

cocklebur = assay: Test E preemergence; type: in vivo, Xanthium strumarium
Text: as §1, §2

poinsettia, wild = assay: Test E preemergence; type: in vivo, Euphorbia heterophylla
Text: as §1, §2

smartweed [1] = assay: Test E preemergence; type: in vivo, Polygonum persicaria
Text: as §1, §2

beggarticks = assay: Test E preemergence; type: in vivo, Bidens pilosa
Text: as §1, §2

soybean = assay: Test E postemergence; type: in vivo, Glycine max
Text: as §1, §2

surinam grass = assay: Test E preemergence; type: in vivo, Brachiaria decumbens
Text: as §1, §2

arrowleaf sida = assay: Test E postemergence; type: in vivo, Sida rhombifolia
Text: as §1, §2

barnyardgrass [2] = assay: Test E preemergence; type: in vivo, Echinochloa crus-galli
Text: as §1, §2

barnyardgrass [3] = assay: Test E postemergence; type: in vivo, Echinochloa crus-galli
Text: as §1, §2

pigweed, palmer = assay: Test E preemergence; type: in vivo, Amaranthus palmeri
Text: as §1, §2

panicum, fall = assay: Test E postemergence; type: in vivo, Panicum dichotomiflorum
Text: as §1, §2

foxtail, giant = assay: Test E preemergence; type: in vivo, Setaria faberii
Text: as §1, §2

smartweed [4] = assay: Test E postemergence; type: in vivo, Polygonum persicaria
Procedure: […]
as §2, with “Plants ranged in height from 2 to 18 cm for postemergence treatments (1- to 4-leaf stage).” left out, “Plant response ratings, summarized in Table E, are based on a scale of 0 to 100 where 0 is no effect and 100 is complete control. A dash (-) response means no test result.” left out

dayflower, VA = assay: Test E preemergence; type: in vivo, Commelina virginica
Text: as §1, §2

nutsedge, yellow = assay: Test E preemergence; type: in vivo, Cyperus esculentus
Text: as §1, §2

foxtail, green = assay: Test E preemergence; type: in vivo, Setaria viridis
Text: as §1, §2

Molecule `CCc1nc(-c2ccc(C(F)(F)F)cc2)nn1Cc1ccnc(C(F)(F)F)c1` [Compound 1, 4-[[5-ethyl-3-[4-(trifluoromethyl)phenyl]-1H-1,2,4-triazol-1-yl]methyl]-2-(trifluoromethyl)pyridine] has a Plant response rating (sandbur; 16 g ai/ha) of 10, a Plant response rating (sandbur; 31 g ai/ha) of 15 and a Plant response rating (sandbur; 62 g ai/ha) of 15. The Plant response rating (sandbur; 125 g ai/ha) was 20, the Plant response rating (sandbur; 250 g ai/ha) was 20 and the Plant response rating (cocklebur; 16 g ai/ha) was 0. For the same molecule, the Plant response rating (cocklebur; 31 g ai/ha) was 0, the Plant response rating (cocklebur; 62 g ai/ha) was 0 and the Plant response rating (cocklebur; 125 g ai/ha) was 10. The Plant response rating (cocklebur; 250 g ai/ha) was 30, the Plant response rating (poinsettia, wild; 16 g ai/ha) was 10 and the Plant response rating (poinsettia, wild; 31 g ai/ha) was 30. It also gave a Plant response rating (poinsettia, wild; 62 g ai/ha) of 40, a Plant response rating (poinsettia, wild; 125 g ai/ha) of 40 and a Plant response rating (poinsettia, wild; 250 g ai/ha) of 50. The Plant response rating (smartweed [1]; 16 g ai/ha) was 25, the Plant response rating (smartweed [1]; 31 g ai/ha) was 40 and the Plant response rating (smartweed [1]; 62 g ai/ha) was 50. The Plant response rating (smartweed [1]; 125 g ai/ha) was 60, the Plant response rating (smartweed [1]; 250 g ai/ha) was 80 and the Plant response rating (beggarticks; 16 g ai/ha) was 0. It also gave a Plant response rating (beggarticks; 31 g ai/ha) of 0, a Plant response rating (beggarticks; 62 g ai/ha) of 0 and a Plant response rating (beggarticks; 125 g ai/ha) of 20. For the same molecule, the Plant response rating (beggarticks; 250 g ai/ha) was 60, the Plant response rating (soybean; 16 g ai/ha) was 40 and the Plant response rating (soybean; 31 g ai/ha) was 40. For the same molecule, the Plant response rating (soybean; 62 g ai/ha) was 50, the Plant response rating (soybean; 125 g ai/ha) was 50 and the Plant response rating (soybean; 250 g ai/ha) was 65. It also gave a Plant response rating (surinam grass; 16 g ai/ha) of 0, a Plant response rating (surinam grass; 31 g ai/ha) of 0 and a Plant response rating (surinam grass; 62 g ai/ha) of 10. It also gave a Plant response rating (surinam grass; 125 g ai/ha) of 20, a Plant response rating (surinam grass; 250 g ai/ha) of 20 and a Plant response rating (arrowleaf sida; 16 g ai/ha) of 30. It also gave a Plant response rating (arrowleaf sida; 31 g ai/ha) of 40, a Plant response rating (arrowleaf sida; 62 g ai/ha) of 50 and a Plant response rating (arrowleaf sida; 125 g ai/ha) of 70. It also gave a Plant response rating (arrowleaf sida; 250 g ai/ha) of 85, a Plant response rating (barnyardgrass [2]; 16 g ai/ha) of 0 and a Plant response rating (barnyardgrass [2]; 31 g ai/ha) of 10. It also gave a Plant response rating (barnyardgrass [2]; 62 g ai/ha) of 30, a Plant response rating (barnyardgrass [2]; 125 g ai/ha) of 30 and a Plant response rating (barnyardgrass [2]; 250 g ai/ha) of 50. It also gave a Plant response rating (barnyardgrass [3]; 16 g ai/ha) of 10, a Plant response rating (barnyardgrass [3]; 31 g ai/ha) of 10 and a Plant response rating (barnyardgrass [3]; 62 g ai/ha) of 15. For the same molecule, the Plant response rating (barnyardgrass [3]; 125 g ai/ha) was 20, the Plant response rating (barnyardgrass [3]; 250 g ai/ha) was 30 and the Plant response rating (pigweed, palmer; 16 g ai/ha) was 80. The Plant response rating (pigweed, palmer; 62 g ai/ha) was 98, the Plant response rating (pigweed, palmer; 125 g ai/ha) was 100 and the Plant response rating (pigweed, palmer; 250 g ai/ha) was 100. The Plant response rating (panicum, fall; 16 g ai/ha) was 10, the Plant response rating (panicum, fall; 31 g ai/ha) was 20 and the Plant response rating (panicum, fall; 62 g ai/ha) was 20. The Plant response rating (panicum, fall; 125 g ai/ha) was 20, the Plant response rating (panicum, fall; 250 g ai/ha) was 30 and the Plant response rating (foxtail, giant; 16 g ai/ha) was 20. For the same molecule, the Plant response rating (foxtail, giant; 31 g ai/ha) was 30, the Plant response rating (foxtail, giant; 62 g ai/ha) was 80 and the Plant response rating (foxtail, giant; 125 g ai/ha) was 80. The Plant response rating (foxtail, giant; 250 g ai/ha) was 98, the Plant response rating (smartweed [4]; 125 g ai/ha) was 30 and the Plant response rating (smartweed [4]; 250 g ai/ha) was 80. It also gave a Plant response rating (dayflower, VA; 16 g ai/ha) of 5, a Plant response rating (dayflower, VA; 31 g ai/ha) of 15 and a Plant response rating (dayflower, VA; 62 g ai/ha) of 25. For the same molecule, the Plant response rating (dayflower, VA; 125 g ai/ha) was 65, the Plant response rating (dayflower, VA; 250 g ai/ha) was 80 and the Plant response rating (nutsedge, yellow; 16 g ai/ha) was 0. It also gave a Plant response rating (nutsedge, yellow; 31 g ai/ha) of 0, a Plant response rating (nutsedge, yellow; 62 g ai/ha) of 0 and a Plant response rating (nutsedge, yellow; 125 g ai/ha) of 0. For the same molecule, the Plant response rating (nutsedge, yellow; 250 g ai/ha) was 10, the Plant response rating (foxtail, green; 16 g ai/ha) was 20 and the Plant response rating (foxtail, green; 31 g ai/ha) was 50. It also gave a Plant response rating (foxtail, green; 62 g ai/ha) of 50, a Plant response rating (foxtail, green; 125 g ai/ha) of 80 and a Plant response rating (foxtail, green; 250 g ai/ha) of 100.
